Data published in patent US6287813A, “Antibiotic-based gene regulation system” (Cistronics Cell Technology GmbH, priority 1999, dated 2001).

Target: T1, PIT3/PPIR ON (Streptomyces coelicolor, UniProt Q9ADN3)
T1 construct: pMF207 with pMF208 in CHO-K1
T1 sequence (Q9ADN3 1-252): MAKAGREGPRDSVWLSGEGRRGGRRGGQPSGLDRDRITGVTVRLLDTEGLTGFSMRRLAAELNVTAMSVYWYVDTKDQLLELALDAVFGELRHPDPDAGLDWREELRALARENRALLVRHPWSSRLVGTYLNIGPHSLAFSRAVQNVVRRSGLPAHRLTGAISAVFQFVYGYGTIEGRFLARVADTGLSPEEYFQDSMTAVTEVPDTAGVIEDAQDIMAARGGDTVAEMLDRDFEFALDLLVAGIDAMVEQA
Test: PipON SEAP assay, CHO-K1 cotransfected with pMF208 (PPIR ON-SEAP) and pMF207 (PIT3; Pip-KRAB)
Assay type: cell-based
Text: The Classical PIT/PPIR system belongs to the "OFF" family of regulation concepts since gene expression is activated upon withdrawal of the regulating antibiotic. However, in some applications such as gene therapy and tissue engineering an "ON" system which is induced upon addition of streptogramin antibiotics is more desirable. We therefore constructed a new Pip-based binary PION system which consists of a PPIR ON promoter and a set of two different transrepressors. PPIR ON consists of a PIR3 module containing 3 consecutive Pip binding elements (SEQ ID NO:21; Example 3) placed in front of the strong viral SV40 promoter. Transrepressors such as PIT3, which consists of a protein fusion between Pip and the KRAB silencing domain of the human kox-1 gene (Deuschle et al., 1995, Mol. Cell Biol. 15: 1907-1914) and PIT4, which is simply Pip expressed in a eukaryotic configuration, bind to PIR3 in front of PSV40 and block transcription of this promoter. Besides sterical transcription blocking the silencing domain of PIT3 can additionally downregulate PSV40 activity. […]
Table 9: Comparison of the regulation characteristics of the PipON systems. CHO-K1 cells were simultaneously cotransfected with the plasmids indicated and the SEAP readout (slope a of the p-nitrophenolphosphate-based light absorbance time courses) was determined in the presence and absence of pristinamycin 48 hr post transfection. […]

Substance: pristinamycin I [PI]
- SEAP readout (slope of the p-nitrophenolphosphate-based light absorbance time courses) (+PI (2 μg/ml) column, CHO + pMF208 + pMF207, 48 hr post transfection): 0.00055 ± 0.0003
- Induction factor (PIT3-PPIR ON configuration, 2880 min): about 150
